Measured values as given in ChEMBL document CHEMBL1201862, “PubChem BioAssay data set” (2004).
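Step 1: Grow cells in 96-well plates. Step 2: Expose to compound for 48 hours at 5 concentrations. Step 3: Interpolate endpoints linearly; if unreached, use highest concentration. The concentration for 50% growth inhibition is given as GI50.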 Active and inactive are the calls of the source. No stated cut-off is given here; in the data, active = GI50 up to about 1.1 µM and inactive = higher.

Columns and labels:
Assay in all cases: growth of human tumour cells (NCI), 48 h
TK-10 = test system: TK-10
RPMI-8226 = test system: RPMI-8226
SNB-19 = test system: SNB-19
SF-539 = test system: SF-539
SF-295 = test system: SF-295
KM12 = test system: KM12
SK-OV-3 = test system: SK-OV-3
OVCAR-3 = test system: OVCAR-3
CCRF-CEM = test system: CCRF-CEM
SR = test system: SR
DU-145 = test system: DU-145
MDA-N = test system: MDA-N
A498 = test system: A498
U-251 = test system: U-251
HT-29 = test system: HT-29
OVCAR-8 = test system: OVCAR-8
PC-3 = test system: PC-3
OVCAR-5 = test system: OVCAR-5
RXF 393 = test system: RXF 393
SNB-75 = test system: SNB-75

Measured: GI50

CCOC(=O)Cc1nc2c(N)ncnc2n1C1OC(COC(C)=O)C(OC(C)=O)C1OC(C)=O (stereo not given)
inactive: TK-10 > 100 µM | RPMI-8226 > 100 µM | SNB-19 > 100 µM | SF-539 > 100 µM | SF-295 > 100 µM | KM12 > 100 µM | SK-OV-3 > 100 µM | OVCAR-3 > 100 µM | CCRF-CEM > 100 µM | SR > 100 µM | DU-145 > 100 µM | MDA-N > 100 µM | A498 > 100 µM | U-251 > 100 µM | HT-29 > 100 µM | OVCAR-8 > 100 µM | PC-3 > 100 µM

COc1ccccc1-c1cc(O)c2cccnc2n1
inactive: TK-10 > 100 µM | RPMI-8226 44.1 µM | SNB-19 69.2 µM | SF-539 56.9 µM | SF-295 67.9 µM | OVCAR-5 > 100 µM | RXF 393 > 100 µM | KM12 35.6 µM | SK-OV-3 58.1 µM | OVCAR-3 36.5 µM | CCRF-CEM 22.9 µM | SR > 100 µM | DU-145 > 100 µM | MDA-N 20 µM | A498 54.2 µM | U-251 40.3 µM | HT-29 23.4 µM | OVCAR-8 37.7 µM | PC-3 40.2 µM

COC(=O)c1scc(N)c1-n1ccc(=O)[nH]c1=O
inactive: TK-10 > 100 µM | RPMI-8226 > 100 µM | SNB-75 > 100 µM | SNB-19 > 100 µM | SF-539 > 100 µM | OVCAR-5 > 100 µM | RXF 393 > 100 µM | KM12 > 100 µM | CCRF-CEM > 100 µM | SR > 100 µM | DU-145 > 100 µM | MDA-N > 100 µM | A498 > 100 µM | U-251 > 100 µM | HT-29 > 100 µM | OVCAR-8 > 100 µM | PC-3 > 100 µM

O=C1Nc2ccccc2Cn2c1cc1oc(-c3ccccc3)cc12
inactive: TK-10 > 100 µM | SNB-75 24.9 µM | SNB-19 22.5 µM | SF-539 29.7 µM | SF-295 17.7 µM | OVCAR-5 62.4 µM | RXF 393 21.4 µM | KM12 95.1 µM | SK-OV-3 28 µM | OVCAR-3 19.2 µM | CCRF-CEM > 100 µM | SR > 100 µM | DU-145 17.3 µM | MDA-N > 100 µM | A498 36.5 µM | U-251 16 µM | HT-29 > 100 µM | OVCAR-8 31 µM | PC-3 57.3 µM

O=c1[nH]c(=O)n(C2OC(CO)C(O)C(F)C2O)cc1F (stereo not given)
inactive: TK-10 > 100 µM | RPMI-8226 > 100 µM | SNB-19 > 100 µM | SF-539 > 100 µM | SF-295 > 100 µM | OVCAR-5 > 100 µM | SK-OV-3 > 100 µM | OVCAR-3 > 100 µM | CCRF-CEM > 100 µM | SR 25.4 µM | DU-145 > 100 µM | MDA-N > 100 µM | A498 > 100 µM | U-251 > 100 µM | HT-29 > 100 µM | OVCAR-8 > 100 µM | PC-3 > 100 µM

CC(=O)Nn1c(Cc2ccc(Cl)cc2)nn(C)c1=O
inactive: TK-10 > 100 µM | RPMI-8226 > 100 µM | SNB-75 > 100 µM | SNB-19 > 100 µM | SF-539 > 100 µM | SF-295 > 100 µM | OVCAR-5 > 100 µM | KM12 > 100 µM | SK-OV-3 > 100 µM | OVCAR-3 > 100 µM | CCRF-CEM > 100 µM | SR > 100 µM | DU-145 > 100 µM | MDA-N > 100 µM | A498 > 100 µM | U-251 > 100 µM | HT-29 > 100 µM | OVCAR-8 > 100 µM | PC-3 > 100 µM

CN(C)CN1CSC(=S)N(CN(C)C)C1
inactive: TK-10 > 100 µM | SNB-75 58.2 µM | SNB-19 > 100 µM | SF-295 > 100 µM | OVCAR-5 > 100 µM | RXF 393 > 100 µM | KM12 > 100 µM | OVCAR-3 > 100 µM | CCRF-CEM 8.15 µM | SR 16.8 µM | DU-145 > 100 µM | MDA-N > 100 µM | A498 > 100 µM | U-251 32.3 µM | HT-29 > 100 µM | OVCAR-8 > 100 µM | PC-3 16.9 µM

O=C1c2cc(Cl)ccc2-n2cnnc2C2CSCN12 (stereo not given)
inactive: TK-10 > 100 µM | RPMI-8226 > 100 µM | SNB-75 > 100 µM | SNB-19 > 100 µM | SF-295 > 100 µM | OVCAR-5 > 100 µM | RXF 393 > 100 µM | KM12 > 100 µM | SK-OV-3 > 100 µM | OVCAR-3 > 100 µM | CCRF-CEM > 100 µM | SR 75.2 µM | DU-145 > 100 µM | MDA-N > 100 µM | A498 55.6 µM | U-251 > 100 µM | HT-29 > 100 µM | OVCAR-8 > 100 µM | PC-3 > 100 µM

COC(=O)c1cc2c(cc1C(=O)OC)[C@@]1(C)CCCC(C)(C)C1CC2 (stereo not given in full)
inactive: TK-10 19.5 µM | RPMI-8226 10.7 µM | SNB-75 30 µM | SNB-19 23.7 µM | SF-539 22 µM | SF-295 16.3 µM | OVCAR-5 18.3 µM | RXF 393 10.1 µM | KM12 15.2 µM | OVCAR-3 10.2 µM | CCRF-CEM 16.7 µM | SR 15.1 µM | DU-145 14.1 µM | MDA-N 21.9 µM | A498 15.6 µM | U-251 18.4 µM | HT-29 15.6 µM | OVCAR-8 30.9 µM | PC-3 14.8 µM

c1ccc(-c2cs[s+]c2)cc1
inactive: TK-10 > 100 µM | SNB-75 > 100 µM | SNB-19 > 100 µM | SF-295 > 100 µM | OVCAR-5 > 100 µM | RXF 393 > 100 µM | KM12 > 100 µM | SK-OV-3 > 100 µM | OVCAR-3 67 µM | CCRF-CEM 22.9 µM | SR 52.2 µM | DU-145 > 100 µM | MDA-N > 100 µM | A498 > 100 µM | U-251 > 100 µM | HT-29 > 100 µM | OVCAR-8 > 100 µM | PC-3 > 100 µM

CCCCCC/C=C\CCCCCCCCCc1cccc(OC)c1O
inactive: TK-10 > 100 µM | RPMI-8226 > 100 µM | SNB-75 > 100 µM | SNB-19 > 100 µM | SF-539 > 100 µM | SF-295 > 100 µM | OVCAR-5 > 100 µM | RXF 393 67.6 µM | KM12 80 µM | SK-OV-3 > 100 µM | CCRF-CEM > 100 µM | SR > 10 µM | DU-145 > 100 µM | MDA-N 85.9 µM | A498 41.2 µM | U-251 > 100 µM | HT-29 > 100 µM | OVCAR-8 38.3 µM | PC-3 63.8 µM
